One assay has as its target T1, PIK3CA (Homo sapiens, UniProt P42336).
T1 construct: endogenous in cells; host or cells: Jurkat cell lysate
The experiment in a line: In vitro ELISA target engagement assay for PIK3CA in Jurkat cellular lysate (competition with PIK3CA Biotin Probe). The class given is binding. Conditions: 1 hour at rt, then 500 nM PIK3CA Biotin Probe, read-out: Elisa Target Engagement Assay (TE50). In outline: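 Competition format in Jurkat lysate: compound (serial dilutions, top 200 μM) for 1 h at rt, then 500 nM final biotinylated PIK3CA probe for 1 h at rt. Sandwich ELISA with capture antibody and Neutravidin-HRP luminescence read-out measured probe-labelled PIK3CA, giving TE50.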
(In general: In an ELISA, binding on a coated surface is turned into a signal by an enzyme label.)

The target of the next assay is T2, PIK3CA_C242 (Homo sapiens, UniProt P42336).
T2 construct: endogenous in cells; host or cells: Jurkat cell lysate
T2 sequence (P42336 whole entry): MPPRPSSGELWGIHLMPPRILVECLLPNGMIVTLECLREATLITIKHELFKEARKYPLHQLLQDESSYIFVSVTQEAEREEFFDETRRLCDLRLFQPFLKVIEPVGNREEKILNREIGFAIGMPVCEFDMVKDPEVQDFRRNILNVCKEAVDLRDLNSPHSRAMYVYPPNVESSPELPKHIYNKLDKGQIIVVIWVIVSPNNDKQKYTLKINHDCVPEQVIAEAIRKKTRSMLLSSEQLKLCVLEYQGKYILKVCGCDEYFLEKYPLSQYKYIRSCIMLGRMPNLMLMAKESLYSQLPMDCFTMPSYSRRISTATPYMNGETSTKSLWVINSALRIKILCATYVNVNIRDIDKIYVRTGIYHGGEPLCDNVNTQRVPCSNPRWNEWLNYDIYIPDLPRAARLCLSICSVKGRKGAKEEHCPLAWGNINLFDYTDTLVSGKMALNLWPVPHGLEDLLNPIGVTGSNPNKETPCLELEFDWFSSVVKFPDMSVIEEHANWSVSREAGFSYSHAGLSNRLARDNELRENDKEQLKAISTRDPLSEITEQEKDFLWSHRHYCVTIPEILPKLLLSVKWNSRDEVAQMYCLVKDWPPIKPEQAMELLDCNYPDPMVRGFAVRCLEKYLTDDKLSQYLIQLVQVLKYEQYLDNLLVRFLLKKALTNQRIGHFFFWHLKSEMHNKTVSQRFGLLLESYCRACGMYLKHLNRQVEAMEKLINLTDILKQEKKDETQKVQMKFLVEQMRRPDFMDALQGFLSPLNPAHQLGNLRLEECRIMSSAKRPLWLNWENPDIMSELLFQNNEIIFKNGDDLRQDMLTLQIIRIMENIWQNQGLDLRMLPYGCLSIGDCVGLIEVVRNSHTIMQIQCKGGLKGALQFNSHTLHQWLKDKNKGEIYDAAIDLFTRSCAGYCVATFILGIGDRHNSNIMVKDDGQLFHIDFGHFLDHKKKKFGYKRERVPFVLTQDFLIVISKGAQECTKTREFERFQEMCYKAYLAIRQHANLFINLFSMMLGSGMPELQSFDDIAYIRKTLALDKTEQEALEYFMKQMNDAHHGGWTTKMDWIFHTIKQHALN
T2 sequence (P27986 whole entry partner): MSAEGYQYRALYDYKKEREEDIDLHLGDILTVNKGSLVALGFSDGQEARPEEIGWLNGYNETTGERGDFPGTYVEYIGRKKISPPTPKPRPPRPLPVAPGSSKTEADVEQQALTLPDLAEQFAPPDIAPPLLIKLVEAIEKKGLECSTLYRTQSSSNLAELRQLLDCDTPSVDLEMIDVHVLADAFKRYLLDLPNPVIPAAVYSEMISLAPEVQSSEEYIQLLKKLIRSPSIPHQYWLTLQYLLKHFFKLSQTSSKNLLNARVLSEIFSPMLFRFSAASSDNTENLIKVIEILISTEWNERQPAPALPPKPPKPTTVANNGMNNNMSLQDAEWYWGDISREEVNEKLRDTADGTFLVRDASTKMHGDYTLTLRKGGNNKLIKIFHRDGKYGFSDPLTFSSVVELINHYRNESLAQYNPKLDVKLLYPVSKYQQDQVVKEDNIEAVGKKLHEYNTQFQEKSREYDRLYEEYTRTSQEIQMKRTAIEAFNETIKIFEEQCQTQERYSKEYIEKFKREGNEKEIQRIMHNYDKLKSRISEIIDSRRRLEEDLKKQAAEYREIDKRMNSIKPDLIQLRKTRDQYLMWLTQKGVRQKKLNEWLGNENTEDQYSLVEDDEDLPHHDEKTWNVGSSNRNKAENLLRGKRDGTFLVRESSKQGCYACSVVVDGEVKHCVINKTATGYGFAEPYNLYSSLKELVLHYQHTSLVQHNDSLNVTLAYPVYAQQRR
In words: Proteomic TE50 (IA-DTB / TMT mass spectrometry) in Jurkat cell lysate. Conditions: 1 hour at rt, 7-point dose response. The class given is binding. In a few lines:
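Cysteine engagement was read by targeted TMT MS3 of the IA-DTB-labelled, streptavidin-enriched C242 tryptic peptide. Beforehand, Jurkat lysate was exposed to a 7-point 1:5 compound series for 1 h at rt, then to 200 μM IA-DTB for 1 h. Reporter S/N curves gave TE50.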

Molecules are shown by their SMILES. pIC50: −log10 of the molar value.

T1 sequence (P42336 whole entry): as the sequence (P42336 whole entry) above
T1 sequence (P27986 whole entry partner): as the sequence (P27986 whole entry partner) above

As to `COc1cccc(-c2cc(F)ccc2S(=O)(=O)N2CCC(F)(C(=O)N[C@@H](C)/C=C\S(C)(=O)=O)CC2)c1` [Compound 9, (S,Z)-4-fluoro-1-((5-fluoro-3′-methoxy-[1,1′-biphenyl]-2-yl)sulfonyl)-N-(4-(methylsulfonyl)but-3-en-2-yl)piperidine-4-carboxamide], the pIC50 at PIK3CA is 6.24; at PIK3CA_C242, 6.29.

For the compound `C[C@H](/C=C\S(C)(=O)=O)NC(=O)C1(F)CCN(S(=O)(=O)c2ccc(Br)cc2-c2ncccc2Cl)CC1` [Compound 204, (R,Z)-1-((4-bromo-2-(3-chloropyridin-2-yl)phenyl)sulfonyl)-4-fluoro-N-(4-(methylsulfonyl)but-3-en-2-yl)piperidine-4-carboxamide], the pIC50 on PIK3CA was 6.47; on PIK3CA_C242, 6.14.

As for `COc1cccc(-c2cc(Cl)ccc2S(=O)(=O)N2CCC(F)(C(=O)N[C@@H](C)/C=C\S(C)(=O)=O)CC2)c1` [Compound 1, (S,Z)-1-((5-chloro-3′-methoxy-[1,1′-biphenyl]-2-yl)sulfonyl)-4-fluoro-N-(4-(methylsulfonyl)but-3-en-2-yl)piperidine-4-carboxamide], the pIC50 at PIK3CA is 6.96; at PIK3CA_C242, 6.61.

In the case of `CC(C)c1ccc(S(=O)(=O)N2CCC(F)(C(=O)N[C@H](C)/C=C\S(C)(=O)=O)CC2)c(-c2ccccc2Cl)c1` [Compound 114, (R,Z)-1-((2′-chloro-5-isopropyl-[1,1′-biphenyl]-2-yl)sulfonyl)-4-fluoro-N-(4-(methylsulfonyl)but-3-en-2-yl)piperidine-4-carboxamide], the figures for the pIC50 on PIK3CA and against PIK3CA_C242 were 6.21 and 6.17, respectively.

Turning to `CC#Cc1cccc(-c2cc(Cl)ccc2S(=O)(=O)N2CCC(F)(C(=O)N[C@@H](C)/C=C\S(C)(=O)=O)CC2)c1` [Compound 100, (S,Z)-1-((5-chloro-3′-(prop-1-yn-1-yl)-[1,1′-biphenyl]-2-yl)sulfonyl)-4-fluoro-N-(4-(methylsulfonyl)but-3-en-2-yl)piperidine-4-carboxamide], the pIC50 was 7.00 on PIK3CA and 7.02 against PIK3CA_C242.

In the case of `C[C@H](/C=C\S(C)(=O)=O)NC(=O)C1(F)CCN(S(=O)(=O)c2ccc(Cl)cc2-c2ccccc2)CC1` [Compound 20, (R,Z)-1-((5-chloro-[1,1′-biphenyl]-2-yl)sulfonyl)-4-fluoro-N-(4-(methylsulfonyl)but-3-en-2-yl)piperidine-4-carboxamide], the pIC50 was 6.17 at PIK3CA and 6.34 against PIK3CA_C242.

With `C[C@H](/C=C\S(C)(=O)=O)NC(=O)C1(F)CCN(S(=O)(=O)c2ccc(OC(F)(F)F)cc2-c2ccccc2Cl)CC1` [Compound 34, (R,Z)-1-((2′-chloro-5-(trifluoromethoxy)-[1,1′-biphenyl]-2-yl)sulfonyl)-4-fluoro-N-(4-(methylsulfonyl)but-3-en-2-yl)piperidine-4-carboxamide], the pIC50 on PIK3CA is 6.26; at PIK3CA_C242, 6.15.

Regarding `C[C@@H](/C=C\S(C)(=O)=O)NC(=O)C1(F)CCN(S(=O)(=O)c2ccc(Cl)cc2-c2cccc(OCc3cccc(Cl)c3)c2)CC1` [Compound 266, (S,Z)-1-((5-chloro-3′-((3-chlorobenzyl)oxy)-[1,1′-biphenyl]-2-yl)sulfonyl)-4-fluoro-N-(4-(methylsulfonyl)but-3-en-2-yl)piperidine-4-carboxamide], the values for the pIC50 at PIK3CA and against PIK3CA_C242 were 6.12 and 6.22, respectively.

Take `COCc1cccc(-c2cc(Cl)ccc2S(=O)(=O)N2CCC(F)(C(=O)N[C@@H](C)/C=C\S(C)(=O)=O)CC2)c1` [Compound 126, (S,Z)-1-((5-chloro-3′-(methoxymethyl)-[1,1′-biphenyl]-2-yl)sulfonyl)-4-fluoro-N-(4-(methylsulfonyl)but-3-en-2-yl)piperidine-4-carboxamide]: the pIC50 at PIK3CA is 6.37; at PIK3CA_C242, 6.09.

On to `COc1cccc(-c2cc(N(C)C)ccc2S(=O)(=O)N2CCC(F)(C(=O)N[C@@H](C)/C=C\S(C)(=O)=O)CC2)c1Cl` [Compound 90, (S,Z)-1-((2′-chloro-5-(dimethylamino)-3′-methoxy-[1,1′-biphenyl]-2-yl)sulfonyl)-4-fluoro-N-(4-(methylsulfonyl)but-3-en-2-yl)piperidine-4-carboxamide], for which the pIC50 at PIK3CA is 6.60; against PIK3CA_C242 it was 6.48.

As for `CC[C@@H](/C=C\S(C)(=O)=O)NC(=O)C1(F)CCN(S(=O)(=O)c2ccc(Cl)cc2-c2ccccc2)CC1` [Compound 84, (S,Z)-1-((5-chloro-[1,1′-biphenyl]-2-yl)sulfonyl)-4-fluoro-N-(1-(methylsulfonyl)pent-1-en-3-yl)piperidine-4-carboxamide], the values for the pIC50 on PIK3CA and on PIK3CA_C242 were 6.29 and 6.35, respectively.

With `COc1ccc(S(=O)(=O)N2CCC(F)(C(=O)N[C@H](C)/C=C\S(C)(=O)=O)CC2)c(-c2c(F)cccc2Cl)c1` [Compound 30, 1-((2′-chloro-6′-fluoro-5-methoxy-[1,1′-biphenyl]-2-yl)sulfonyl)-4-fluoro-N-((R,Z)-4-(methylsulfonyl)but-3-en-2-yl)piperidine-4-carboxamide], the pIC50 on PIK3CA was 6.25; on PIK3CA_C242, 6.47.

As for `C[C@@H](/C=C\S(C)(=O)=O)NC(=O)C1(F)CCN(S(=O)(=O)c2ccc(N(C)C)cc2-c2ccccc2)CC1` [Compound 88, (S,Z)-1-((5-(dimethylamino)-[1,1′-biphenyl]-2-yl)sulfonyl)-4-fluoro-N-(4-(methylsulfonyl)but-3-en-2-yl)piperidine-4-carboxamide], the figures for the pIC50 on PIK3CA and against PIK3CA_C242 were 7.10 and 7.07, respectively.

As to `COc1ccc(S(=O)(=O)N2CCC(F)(C(=O)N[C@H](C)/C=C\S(C)(=O)=O)CC2)c(-c2cccc(F)c2Cl)c1` [Compound 26, (R,Z)-1-((2′-chloro-3′-fluoro-5-methoxy-[1,1′-biphenyl]-2-yl)sulfonyl)-4-fluoro-N-(4-(methylsulfonyl)but-3-en-2-yl)piperidine-4-carboxamide], the pIC50 is 6.42 on PIK3CA and 6.43 against PIK3CA_C242.

In the case of `C[C@H](/C=C\S(C)(=O)=O)NC(=O)C1(F)CCN(S(=O)(=O)c2cnc(Br)cc2-c2ccccc2Cl)CC1` [Compound 277, (R,Z)-1-((6-bromo-4-(2-chlorophenyl)pyridin-3-yl)sulfonyl)-4-fluoro-N-(4-(methylsulfonyl)but-3-en-2yl)piperidine-4-carboxamide], the pIC50 on PIK3CA is 7.01; on PIK3CA_C242 it was 7.09.

Consider `C[C@@H](/C=C\S(C)(=O)=O)NC(=O)C1(F)CCN(S(=O)(=O)c2ccc(Cl)cc2-c2cccc(OCc3cccnc3)c2)CC1` [Compound 260, (S,Z)-1-((5-chloro-3′-(pyridin-3-ylmethoxy)-[1,1′-biphenyl]-2-yl)sulfonyl)-4-fluoro-N-(4-(methylsulfonyl)but-3-en-2-yl)piperidine-4-carboxamide], for which the pIC50 on PIK3CA was 6.82; against PIK3CA_C242, 6.68.

For the compound `N#C/C=C/CNC(=O)C1(F)CCN(S(=O)(=O)c2ccc(Br)cc2-c2ccccc2Cl)CC1` [Compound 68, (E)-1-((5-bromo-2′-chloro-[1,1′-biphenyl]-2-yl)sulfonyl)-N-(3-cyanoallyl)-4-fluoropiperidine-4-carboxamide], the pIC50 at PIK3CA was 6.33; against PIK3CA_C242, 6.48.
